Experiments:
[1] = system: deposition of melanin pigmentation; assay: Examination for depigmentation effect: lotion applied to skin after sunlight exposure, judged by the subjects; type: in vivo; conditions: for DEPIGMENTATION EFFECT / DEPI[…]: lotion with 1.0 weight% compound; for effect to prevent the deposition of melanin pigmentation after the skin was exposed to the sunlight: in words, text summary of the tables, test lotions compared with hydroquinone, tranexamic acid and no compound
Protocol: 60 subjects were disposed under sunlight for 4 hours in summer (2 hours × 2 days). The lotions were applied to skin of medial brachia for once in each morning and evening from 5 days after the day when the skin was exposed to the sun light for eight weeks. The one group consists of 10 subjects and six groups were given for the examination in accordance with the following prescriptions. […] The aqueous phase and the alcohol phase were prepared respectively, and both phase were mixed and dissolved. […] X: The number of subjects who judged the result was "extremely effective" and "effective" were less than 30 %. TABLE 1 Depigmentation effect was examined by using the following external preparations for skin in accordance with the above described condition. […] The alcohol phase and aqueous phase were prepared respectively, and both phase were mixed and dissolved. TABLE 3 Depigmentation effect was examined by using the following external preparations for skin in accordance with the above described condition. […] The alcohol phase and aqueous phase were prepared respectively, and both phase were mixed and dissolved.

face of subjects = assay: Examination for skin care effect: half-face application against comparison 1, judged by the subjects; type: in vivo, women
Protocol: One group of subjects consists of ten women and 3 groups of the subjects were given for the examination.
The effectiveness of three items (moisturising effect, texture of skin surface, maintenance (one day) of moisturising effect) were evaluated according to the following standards.
Ⓞ: The number of subjects who judged the result was "extremely effective" and "effective" were not less than 80 %. ○: The number of subjects who judged the result was "extremely effective" and "effective" were from 50% to 80%. △: The number of subjects who judged the result was "extremely effective" and "effective" were from 30% to 50%. X: The number of subjects who judged the result was "extremely effective " and "effective" were less than 30%.
Skin care effect of the examples was examined in accordance with the above-mentioned condition.

[2] = TABLE 1, skin of medial brachia, morning and evening for eight weeks from 5 days after sunlight exposure (4 hours), 10 subjects per group
[3] = TABLE 2, lotion with 1.0 weight% compound on left half of face, every morning and night for two weeks, ten women per group
[4] = TABLE 2, maintenance (one day), lotion with 1.0 weight% compound on left half of face, every morning and night for two weeks, ten women per group
[5] = TABLE 5, same condition as TABLE 1
[6] = TABLE 6, lotion with 1.0 weight% compound, same condition as TABLE 2
[7] = TABLE 3, same condition as TABLE 1
[8] = TABLE 4, lotion with 1.0 weight% compound, same condition as TABLE 2

`Cl.NC[C@H]1CC[C@H](C(=O)Oc2ccc(O)cc2C(=O)O)CC1` [EXM.1-3, 2-(trans-4-aminomethylcyclohexylcarbonyloxy)-5-hydroxy benzoic acid hydrochloride] was tested, and the “DEPIGMENTATION EFFECT” value [1, 2] was “Ⓞ (The number of subjects who judged the result was "extremely effective" and "effective" were not less than 80%.)”, the “effect to prevent the deposition of melanin pigmentation after the skin was exposed to the sunlight” value (from here on “effect to prevent the deposition”) [1] was “excellent” and the “MOISTURISING EFFECT” value (face of subjects; [3]) was “Ⓞ (The number of subjects who judged the result was "extremely effective" and "effective" were not less than 80 %.)”. The “TEXTURE OF SKIN SURFACE” value (face of subjects; [3]) was “Ⓞ (The number of subjects who judged the result was "extremely effective" and "effective" were not less than 80 %.)” and the “MAINTENANCE OF MOISTURISING EFFECT” value (face of subjects; [4]) was “Ⓞ (The number of subjects who judged the result was "extremely effective" and "effective" were not less than 80 %.)”.
`NC[C@H]1CC[C@H](C(=O)Oc2ccc(O)cc2C(=O)O)CC1` [EXM.1-1, 2-(trans-4-aminomethylcyclohexylcarbonyloxy)-5-hydroxy benzoic acid] was tested, and the “DEPIGMENTATION EFFECT” value [1, 2] was “Ⓞ (The number of subjects who judged the result was "extremely effective" and "effective" were not less than 80%.)”, the “effect to prevent the deposition” value [1] was “excellent” and the “MOISTURISING EFFECT” value (face of subjects; [3]) was “Ⓞ (The number of subjects who judged the result was "extremely effective" and "effective" were not less than 80 %.)”. The “TEXTURE OF SKIN SURFACE” value (face of subjects; [3]) was “Ⓞ (The number of subjects who judged the result was "extremely effective" and "effective" were not less than 80 %.)” and the “MAINTENANCE OF MOISTURISING EFFECT” value (face of subjects; [4]) was “Ⓞ (The number of subjects who judged the result was "extremely effective" and "effective" were not less than 80 %.)”.
For `NC[C@H]1CC[C@H](C(=O)Oc2ccc(O)c(C(=O)O)c2)CC1` [EXM.1-2, 5-(trans-4-aminomethylcyclohexylcarbonyloxy)-2-hydroxy benzoic acid], the “DEPIGMENTATION EFFECT” value [1, 2] was “Ⓞ (The number of subjects who judged the result was "extremely effective" and "effective" were not less than 80%.)”, the “effect to prevent the deposition” value [1] was “excellent” and the “MOISTURISING EFFECT” value (face of subjects; [3]) was “Ⓞ (The number of subjects who judged the result was "extremely effective" and "effective" were not less than 80 %.)”. For the same molecule, the “TEXTURE OF SKIN SURFACE” value (face of subjects; [3]) was “Ⓞ (The number of subjects who judged the result was "extremely effective" and "effective" were not less than 80 %.)” and the “MAINTENANCE OF MOISTURISING EFFECT” value (face of subjects; [4]) was “Ⓞ (The number of subjects who judged the result was "extremely effective" and "effective" were not less than 80 %.)”.
“4'-hydroxy phenyl trans-4-aminomethyl cyclohexane carboxylate hydrochloride [EXM.3-2]” was tested, and the “DEPIGMENTATION EFFECT” value [1, 5] was “Ⓞ (The number of subjects who judged the result was "extremely effective" and "effective" were not less than 80%.)”, the “MAINTENANCE OF MOISTURISING EFFECT” value (face of subjects; [6]) was “Ⓞ (The number of subjects who judged the result was "extremely effective" and "effective" were not less than 80 %.)” and the “MOISTURISING EFFECT” value (face of subjects; [6]) was “Ⓞ (The number of subjects who judged the result was "extremely effective" and "effective" were not less than 80 %.)”. The “TEXTURE OF SKIN SURFACE” value (face of subjects; [6]) was “Ⓞ (The number of subjects who judged the result was "extremely effective" and "effective" were not less than 80 %.)”.
`Oc1ccc(O)cc1` [COMP.2, hydroquinone, reference compound] was tested, and the “DEPI[…]” value [1, 2] was “△ (The number of subjects who judged the result was "extremely effective" and "effective" were from 30% to 50%.)”, the “DEPI[…]” value [1, 7] was “△ (The number of subjects who judged the result was "extremely effective" and "effective" were from 30% to 50%.)” and the “DEPI[…]” value [1, 5] was “△ (The number of subjects who judged the result was "extremely effective" and "effective" were from 30% to 50%.)”.
`NC[C@H]1CC[C@H](C(=O)O)CC1` [COMP.3, tranexamic acid] was tested, and the “DEPIGMENTATION EFFECT” value [1, 7] was “○ (The number of subjects who judged the result was "extremely effective" and "effective" were from 50% to 80%.)” and the “DEPIGMENTATION EFFECT” value [1, 5] was “△ (The number of subjects who judged the result was "extremely effective" and "effective" were from 30% to 50%.)”.
In the case of `NC[C@H]1CC[C@H](C(=O)NC[C@H]2CC[C@H](C(=O)O)CC2)CC1` [EXM.2-1, Trans-4-(trans-4-aminomethylcyclohexanecarbonyl) aminomethyl cyclohexane carboxylic acid], the “DEPIGMENTATION EFFECT” value [1, 7] is reported as “Ⓞ (The number of subjects who judged the result was "extremely effective" and "effective" were not less than 80%.)”, the “MAINTENANCE OF MOISTURISING EFFECT” value (face of subjects; [8]) is reported as “Ⓞ (The number of subjects who judged the result was "extremely effective" and "effective" were not less than 80 %.)” and the “MOISTURISING EFFECT” value (face of subjects; [8]) is reported as “Ⓞ (The number of subjects who judged the result was "extremely effective" and "effective" were not less than 80 %.)”. The “TEXTURE OF SKIN SURFACE” value (face of subjects; [8]) was “Ⓞ (The number of subjects who judged the result was "extremely effective" and "effective" were not less than 80 %.)”.
`NC[C@H]1CC[C@H](C(=O)Oc2ccc(O)cc2)CC1` [EXM.3-1, 4'-hydroxy phenyl trans-4-aminomethyl cyclohexane carboxylate] was tested, and the “DEPIGMENTATION EFFECT” value [1, 5] was “Ⓞ (The number of subjects who judged the result was "extremely effective" and "effective" were not less than 80%.)”, the “MAINTENANCE OF MOISTURISING EFFECT” value (face of subjects; [6]) was “Ⓞ (The number of subjects who judged the result was "extremely effective" and "effective" were not less than 80 %.)” and the “MOISTURISING EFFECT” value (face of subjects; [6]) was “Ⓞ (The number of subjects who judged the result was "extremely effective" and "effective" were not less than 80 %.)”. For the same molecule, the “TEXTURE OF SKIN SURFACE” value (face of subjects; [6]) was “Ⓞ (The number of subjects who judged the result was "extremely effective" and "effective" were not less than 80 %.)”.
